Results: patent US11021457B2, “Class of isoindolone-imide ring-1,3-dione-2-ene compounds, composition and use thereof” (WIGEN BIOMEDICINE TECHNOLOGY (SHANGHAI) CO., LTD., priority 2017, dated 2021)

Assays:
Assay type in all cases: cell-based
Conditions in all cases: compound concentration 50 μM, 72 hours
SU-DHL6 = assay: Inhibition of tumor cell proliferation, CellTiter-Glo, SU-DHL6
How it was run: (§1)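 Luminescent ATP read-out (CellTiter-Glo) after 72 hours gave survival relative to untreated wells, corrected for blank. Activity categories were assigned from survival at 50 μM: ≤30% high, >30-60% moderate, 60-<90% low.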

RPMI-8226 = assay: Inhibition of tumor cell proliferation, CellTiter-Glo, RPMI-8226
How it was run: as §1

K562 = assay: Inhibition of tumor cell proliferation, CellTiter-Glo, K562
How it was run: as §1

A549 = assay: Inhibition of tumor cell proliferation, CellTiter-Glo, A549
How it was run: as §1

MDA-MB-453 = assay: Inhibition of tumor cell proliferation, CellTiter-Glo, MDA-MB-453
How it was run: as §1

BxPC-3 = assay: Inhibition of tumor cell proliferation, CellTiter-Glo, BxPC-3
How it was run: as §1

Structure (SMILES) | Inhibitory activity against proliferation (cell survival rate) SU-DHL6 (SU-DHL6) | Inhibitory activity against proliferation (cell survival rate) RPMI-8226 (RPMI-8226) | Inhibitory activity against proliferation (cell survival rate) K562 (K562) | Inhibitory activity against proliferation (cell survival rate) A549 (A549) | Inhibitory activity against proliferation (cell survival rate) MDA-MB-453 (MDA-MB-453) | Inhibitory activity against proliferation (cell survival rate) BxPC-3 (BxPC-3) | cell survival rate (% of control) at 50 µM (SU-DHL6; Homo sapiens, SU-DHL-6, read-out: Inhibitory activity against proliferation (cell survival rate) SU-DHL6) | cell survival rate (% of control) at 50 µM (RPMI-8226; Homo sapiens, RPMI-8226, read-out: Inhibitory activity against proliferation (cell survival rate) RPMI-8226) | cell survival rate (%) at 50 µM (K562; Homo sapiens, K562, read-out: Inhibitory activity against proliferation (cell survival rate) K562) | cell survival rate (% of control) at 50 µM (A549; Homo sapiens, A549, read-out: Inhibitory activity against proliferation (cell survival rate) A549) | cell survival rate (%) at 50 µM (MDA-MB-453; Homo sapiens, MDA-MB-453, read-out: Inhibitory activity against proliferation (cell survival rate) MDA-MB-453) | cell survival rate (%) at 50 µM (BxPC-3; Homo sapiens, BXPC-3, read-out: Inhibitory activity against proliferation (cell survival rate) BxPC-3)
O=C1CCC(N2Cc3c(NC=C4C(=O)CC(COc5ccccc5)CC4=O)cccc3C2=O)C(=O)N1 (stereo not drawn) [Compound 118] | + (60≤survival rate (%)<90) | + (60≤survival rate (%)<90) | ++ (30<survival rate (%)≤60) | + (60≤survival rate (%)<90) | + (60≤survival rate (%)<90) | + (60≤survival rate (%)<90) | – | – | – | – | – | –
O=C1CCC(N2C(=O)c3cccc(NS(=O)(=O)N4CCN(CCNC=C5C(=O)CC(c6ccccc6)CC5=O)CC4)c3C2=O)C(=O)N1 (stereo not drawn) [Compound 71] | +++ (survival rate (%)≤30) | +++ (survival rate (%)≤30) | +++ (survival rate (%)≤30) | +++ (survival rate (%)≤30) | +++ (survival rate (%)≤30) | + (60≤survival rate (%)<90) | – | – | – | – | – | –
O=C1CCC(N2C(=O)c3cccc(OCC(=O)N4CCN(CCNC=C5C(=O)CC(c6ccccc6)CC5=O)CC4)c3C2=O)C(=O)N1 (stereo not drawn) [Compound 105] | + (60≤survival rate (%)<90) | + (60≤survival rate (%)<90) | + (60≤survival rate (%)<90) | +++ (survival rate (%)≤30) | ++ (30<survival rate (%)≤60) | ++ (30<survival rate (%)≤60) | – | – | – | – | – | –
O=C1CCC(N2Cc3c(NC(=O)OCCN4CCN(CCNC=C5C(=O)CC(c6ccccc6)CC5=O)CC4)cccc3C2=O)C(=O)N1 (stereo not drawn) [Compound 79] | + (60≤survival rate (%)<90) | +++ (survival rate (%)≤30) | + (60≤survival rate (%)<90) | + (60≤survival rate (%)<90) | ++ (30<survival rate (%)≤60) | ++ (30<survival rate (%)≤60) | – | – | – | – | – | –
O=C1CC(c2ccccc2)CC(=O)C1=CNCCN1CCC(C(=O)N2C(=O)CCC(N3C(=O)c4ccccc4C3=O)C2=O)CC1 (stereo not drawn) [Compound 102] | ++ (30<survival rate (%)≤60) | +++ (survival rate (%)≤30) | +++ (survival rate (%)≤30) | +++ (survival rate (%)≤30) | +++ (survival rate (%)≤30) | + (60≤survival rate (%)<90) | – | – | – | – | – | –
O=C1CCC(N2Cc3c(NC=C4C(=O)CC(c5ccc(OC(F)(F)F)cc5)CC4=O)cccc3C2=O)C(=O)N1 (stereo not drawn) [Compound 22] | + (60≤survival rate (%)<90) | + (60≤survival rate (%)<90) | + (60≤survival rate (%)<90) | + (60≤survival rate (%)<90) | ++ (30<survival rate (%)≤60) | ++ (30<survival rate (%)≤60) | – | – | – | – | – | –
COC(=O)c1ccc(C2CC(=O)C(=CNc3cccc4c3CN(C3CCC(=O)NC3=O)C4=O)C(=O)C2)cc1 (stereo not drawn) [Compound 33] | +++ (survival rate (%)≤30) | +++ (survival rate (%)≤30) | +++ (survival rate (%)≤30) | +++ (survival rate (%)≤30) | +++ (survival rate (%)≤30) | + (60≤survival rate (%)<90) | – | – | – | – | – | –
O=C1CCC(N2C(=O)c3cccc(NC(=O)c4cnc(NC=C5C(=O)CC(c6ccccc6)CC5=O)s4)c3C2=O)C(=O)N1 (stereo not drawn) [Compound 63] | ++ (30<survival rate (%)≤60) | ++ (30<survival rate (%)≤60) | +++ (survival rate (%)≤30) | + (60≤survival rate (%)<90) | + (60≤survival rate (%)<90) | + (60≤survival rate (%)<90) | – | – | – | – | – | –
O=C1CCC(N2C(=O)c3cccc(NCCN4CCN(CCNC=C5C(=O)CC(c6ccccc6)CC5=O)CC4)c3C2=O)C(=O)N1 (stereo not drawn) [Compound 109] | + (60≤survival rate (%)<90) | +++ (survival rate (%)≤30) | ++ (30<survival rate (%)≤60) | ++ (30<survival rate (%)≤60) | + (60≤survival rate (%)<90) | ++ (30<survival rate (%)≤60) | – | – | – | – | – | –
O=C1CCC(N2Cc3c(N/C=C4\C(=O)CC(c5ccccc5)OC4=O)cccc3C2=O)C(=O)N1 (stereo not drawn) [Compound 112] | – | – | – | – | – | – | 60 to 90% | 30 to 60% | 30 to 60% | 60 to 90% | 30 to 60% | 30 to 60%
O=C1CCC(N2Cc3c(NC(=O)[C@@H]4C[C@H](O)CN4CCNC=C4C(=O)CC(c5ccccc5)CC4=O)cccc3C2=O)C(=O)N1 (stereo partly drawn) [Compound 65] | +++ (survival rate (%)≤30) | +++ (survival rate (%)≤30) | +++ (survival rate (%)≤30) | +++ (survival rate (%)≤30) | +++ (survival rate (%)≤30) | + (60≤survival rate (%)<90) | – | – | – | – | – | –
Nc1cccc2c1CN(C1CCC(=O)N(C(=O)N3CCN(CCNC=C4C(=O)CC(c5ccccc5)CC4=O)CC3)C1=O)C2=O (stereo not drawn) [Compound 100] | ++ (30<survival rate (%)≤60) | + (60≤survival rate (%)<90) | +++ (survival rate (%)≤30) | +++ (survival rate (%)≤30) | ++ (30<survival rate (%)≤60) | ++ (30<survival rate (%)≤60) | – | – | – | – | – | –
O=C1CCC(N2Cc3c(NC=C4C(=O)CC(c5ccc(-c6ccncc6)cc5)CC4=O)cccc3C2=O)C(=O)N1 (stereo not drawn) [Compound 117] | + (60≤survival rate (%)<90) | +++ (survival rate (%)≤30) | ++ (30<survival rate (%)≤60) | + (60≤survival rate (%)<90) | + (60≤survival rate (%)<90) | + (60≤survival rate (%)<90) | – | – | – | – | – | –
